# Source: patent US20100249419A1, “UTILIZATION OF NOVEL COMPOUNDS WITH AMYLOID AFFINITY AND METHOD OF PRODUCING THE SAME” (NIHON MEDI-PHYSICS CO., LTD., priority 2007, published 2010)
# Tests used:
# insulin amyloid = molecular target: T1, insulin amyloid (Homo sapiens, UniProt P01308); experiment: In vitro binding of labeled compound to insulin amyloid (glass fiber filter); conditions: insulin amyloid 0.8 μg/mL, 22° C., 3 hours
# T1 construct: 5 mg of insulin (manufactured by Sigma Aldrich Japan); purchased Sigma Aldrich Japan
# T1 sequence (P01308 25-54 limits assumed): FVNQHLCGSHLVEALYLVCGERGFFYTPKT
# T1 sequence (P01308 90-110 limits assumed): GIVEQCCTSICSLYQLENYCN
# Procedure: Insulin with cross -sheet structure was prepared by the following procedures (2) and (3) which was the method described in the known literature (Burke, M. J. et al., Biochemistry. 11, p. 2435-2439 (1972)) to which a little modification was made.
# (2) 5 mg of insulin (manufactured by Sigma Aldrich Japan) was dissolved in 1 mL of deionized water which was adjusted to pH 2 with hydrochloric acid, and the solution was heated at 90° C. for 10 minutes, and then quickly cooled in dry ice/ethanol.
# (3) A sample solution of (2) was heated at 90° C. for 5 minutes, and then quickly cooled in dry ice/ethanol. […]
# (8) A solution of Compound 1 which was synthesized by the method above in Example 3 was prepared (radioactivity of 500 MBq/mL), and diluted with a 0.1% bovine serum albumin-containing phosphate buffer (pH 7.4) to prepare a solution of 1.2-112.9 pM in terms of the total amount of 2-[4′-(2″-hydroxyethoxy)phenyl]-6-iodoimidazo[1,2-a]pyridine. […]
# (11) The glass fiber filter used for the filtration of the mixture was washed with a 0.1% bovine serum albumin-containing phosphate buffer (0.2 mL×5), and radioactivity of the glass fiber filter was measured with an autowell gamma system (manufactured by Aloka, Type: ARC-7001).
# (12) From the measurement results of (11), relation between the amount of Compound 1 binding to amyloid and addition amount of amyloid was evaluated. […]
# [1] = molecular target: T2, aggregated amylin (amyloid) (Homo sapiens, UniProt P10997); experiment: Inhibition of binding of Thioflavin T to amyloid derived from amylin; conditions: Thioflavin T 5 μmol/L
# T2 construct: Amylin (human) (manufactured by Wako); purchased Wako
# T2 sequence (P10997 34-70 limits assumed): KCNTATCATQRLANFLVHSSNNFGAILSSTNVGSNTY
# Procedure: Amylin is an amyloid accumulating in pancreas of type II diabetes.
# (1) Amylin (human) (manufactured by Wako) was dissolved in phosphate buffer (pH 7.4) and shaken at 37° C. for 72 hours, to obtain a 1 mg/mL suspension of aggregated amylin (hereinafter referred to as amyloid suspension in this Example).
# (2) According to the method described in a literature (Naiki, H., et al., Laboratory
# (3) The amyloid suspension was dissolved in 50 mM phosphate buffer (pH 7.4) at a concentration of amylin of 15 μM.
# (4) Samples in which each compound for evaluation and amyloid were dissolved in a 50 mM phosphate buffer (pH 7.4) at final concentrations shown in Table 9 were prepared.
# (5) A sample in which 100 μL of 50 mM phosphate buffer (pH 7.4) and 50 μL of 50 mM glycin-NaOH buffer were mixed was made as a blank, and subjected to the same procedure as in (4) and used for a calculation of inhibition ratio.
# (6) The microplate filled with the sample solutions was left to stand still at room temperature for 30 hours.
# (7) Using the fluorescence strength measured above in (6), the following formula (6): […]
# was used to determine the inhibition ratio.
Inhibition ratio (%) of binding of amyloid (amylin) to Thioflavin T ([1]; compound 1.5 μmol/L),Inhibition ratio (%) of binding of amyloid (amylin) to Thioflavin T ([1]; compound 15 μmol/L),Inhibition ratio (%) of binding of amyloid (amylin) to Thioflavin T ([1]; compound 30 μmol/L),Substance,Radioactivity of the glass fiber filter versus amyloid non-added group (insulin amyloid)
34.4%,51.3%,46.8%,"2-[4′-(2″-hydroxyethoxy)phenyl]-6-[^123I]iodoimidazo[1,2-a]pyridine [Compound 1]",all high compared to the group without amyloid suspension
37.1%,46.9%,53.0%,"2-(4′-ethoxyphenyl)-6-[^123I]iodoimidazo[1,2-a]pyridine [Compound 2]",–
–,–,–,"2-[4′-(3″-hydroxypropoxy)phenyl]-6-[^123I]iodoimidazo[1,2-a]pyridine [Compound 6]",all high compared to the group without amyloid suspension
